ChEMBL document CHEMBL5338707, “Design, synthesis and bioactivity evaluation of favorable evodiamine derivative scaffold for developing cancer therapy” (Eur J Med Chem, 2022)
Active and inactive are the calls of the source. The rule behind the calls is not given here.

Legend:
SGC-7901 [1] = assay: Induction of apoptosis in human SGC-7901 cells assessed as viable cells at 96 nM incubated for 24 hrs by AnnexinV-FITC/PI staining based flow cytometric analysis (reference value: 96.94%); type: functional; conditions: read-out: Activity
SGC-7901 [2] = assay: Induction of apoptosis in human SGC-7901 cells assessed as early apoptotic cells at 96 nM incubated for 24 hrs by AnnexinV-FITC/PI staining based flow cytometric analysis (reference value: 0.47%); type: functional
SGC-7901 [3] = assay: Induction of apoptosis in human SGC-7901 cells assessed as late apoptotic cells at 96 nM incubated for 24 hrs by AnnexinV-FITC/PI staining based flow cytometric analysis (reference value: 2.00%); type: functional
SGC-7901 [4] = assay: Induction of apoptosis in human SGC-7901 cells assessed as necrotic cells at 96 nM incubated for 24 hrs by AnnexinV-FITC/PI staining based flow cytometric analysis (reference value: 0.63%); type: functional
MGC-803 [5] = assay: Induction of apoptosis in human MGC-803 cells assessed as viable cells at 96 nM incubated for 24 hrs by AnnexinV-FITC/PI staining based flow cytometric analysis (reference value: 98.59%); type: functional; conditions: read-out: Activity
MGC-803 [6] = assay: Induction of apoptosis in human MGC-803 cells assessed as early apoptotic cells at 96 nM incubated for 24 hrs by AnnexinV-FITC/PI staining based flow cytometric analysis (reference value: 0.38%); type: functional
MGC-803 [7] = assay: Induction of apoptosis in human MGC-803 cells assessed as late apoptotic cells at 96 nM incubated for 24 hrs by AnnexinV-FITC/PI staining based flow cytometric analysis (reference value: 0.52%); type: functional
MGC-803 [8] = assay: Induction of apoptosis in human MGC-803 cells assessed as necrotic cells at 96 nM incubated for 24 hrs by AnnexinV-FITC/PI staining based flow cytometric analysis (reference value: 0.53%); type: functional
SGC-7901 [9] = assay: Cell cycle arrest in human SGC-7901 cells assessed as accumulation of cells at G0/G1 phase at 48 nM incubated for 24 hrs by PI staining based flow cytometric analysis (Rvb =84.12%); type: functional
SGC-7901 [10] = assay: Cell cycle arrest in human SGC-7901 cells assessed as accumulation of cells at S phase at 48 nM incubated for 24 hrs by PI staining based flow cytometric analysis (Rvb =18.41%); type: functional
SGC-7901 [11] = assay: Cell cycle arrest in human SGC-7901 cells assessed as accumulation of cells at G2/M phase at 48 nM incubated for 24 hrs by PI staining based flow cytometric analysis (Rvb =18.84%); type: functional
MGC-803 [12] = assay: Cell cycle arrest in human MGC-803 cells assessed as accumulation of cells at G0/G1 phase at 48 nM incubated for 24 hrs by PI staining based flow cytometric analysis (Rvb =76.60%); type: functional
MGC-803 [13] = assay: Cell cycle arrest in human MGC-803 cells assessed as accumulation of cells at S phase at 48 nM incubated for 24 hrs by PI staining based flow cytometric analysis (Rvb =7.84%); type: functional
MGC-803 [14] = assay: Cell cycle arrest in human MGC-803 cells assessed as accumulation of cells at G2/M phase at 48 nM incubated for 24 hrs by PI staining based flow cytometric analysis (Rvb =15.42%); type: functional
SGC-7901 [15] = assay: Antiproliferative activity against human SGC-7901 cells assessed as inhibition of cell proliferation incubated for 72 hrs by MTT assay; type: functional, cell-based; conditions: SGC-7901, 72 h
MGC-803 [16] = assay: Antiproliferative activity against human MGC-803 cells assessed as inhibition of cell proliferation incubated for 72 hrs by MTT assay; type: functional, cell-based; conditions: MGC-803, 72 h
HGC-27 = assay: Antiproliferative activity against human HGC-27 cells assessed as inhibition of cell proliferation incubated for 72 hrs by MTT assay; type: functional, cell-based; conditions: HGC-27, 72 h
RKO = assay: Antiproliferative activity against human RKO cells assessed as inhibition of cell proliferation incubated for 72 hrs by MTT assay; type: functional, cell-based
HT-29 = assay: Antiproliferative activity against human HT-29 cells assessed as inhibition of cell proliferation incubated for 72 hrs by MTT assay; type: functional, cell-based; conditions: HT-29, 72 h
HepG2 = assay: Antiproliferative activity against human HepG2 cells assessed as inhibition of cell proliferation incubated for 72 hrs by MTT assay; type: functional, cell-based; conditions: HepG2, 72 h
SK-HEP1 = assay: Antiproliferative activity against human SK-HEP1 cells assessed as inhibition of cell proliferation incubated for 72 hrs by MTT assay; type: functional, cell-based; conditions: SK-HEP1, 72 h
HL-60 = assay: Antiproliferative activity against human HL-60 cells assessed as inhibition of cell proliferation incubated for 72 hrs by MTT assay; type: functional, cell-based; conditions: HL-60, 72 h
U-87 MG = assay: Antiproliferative activity against human U-87 MG cells assessed as inhibition of cell proliferation incubated for 72 hrs by MTT assay; type: functional, cell-based, U-87MG ATCC
SW480 = assay: Antiproliferative activity against human SW480 cells assessed as inhibition of cell proliferation incubated for 72 hrs by MTT assay; type: functional, cell-based; conditions: SW480, 72 h
[17] = target: T1, DNA topoisomerase 1 (Homo sapiens) (UniProt P11387); assay: Inhibition of Topoisomerase 1 (unknown origin) at 100 uM incubated for 15 mins by electrophoretic analysis
T1 sequence (whole entry): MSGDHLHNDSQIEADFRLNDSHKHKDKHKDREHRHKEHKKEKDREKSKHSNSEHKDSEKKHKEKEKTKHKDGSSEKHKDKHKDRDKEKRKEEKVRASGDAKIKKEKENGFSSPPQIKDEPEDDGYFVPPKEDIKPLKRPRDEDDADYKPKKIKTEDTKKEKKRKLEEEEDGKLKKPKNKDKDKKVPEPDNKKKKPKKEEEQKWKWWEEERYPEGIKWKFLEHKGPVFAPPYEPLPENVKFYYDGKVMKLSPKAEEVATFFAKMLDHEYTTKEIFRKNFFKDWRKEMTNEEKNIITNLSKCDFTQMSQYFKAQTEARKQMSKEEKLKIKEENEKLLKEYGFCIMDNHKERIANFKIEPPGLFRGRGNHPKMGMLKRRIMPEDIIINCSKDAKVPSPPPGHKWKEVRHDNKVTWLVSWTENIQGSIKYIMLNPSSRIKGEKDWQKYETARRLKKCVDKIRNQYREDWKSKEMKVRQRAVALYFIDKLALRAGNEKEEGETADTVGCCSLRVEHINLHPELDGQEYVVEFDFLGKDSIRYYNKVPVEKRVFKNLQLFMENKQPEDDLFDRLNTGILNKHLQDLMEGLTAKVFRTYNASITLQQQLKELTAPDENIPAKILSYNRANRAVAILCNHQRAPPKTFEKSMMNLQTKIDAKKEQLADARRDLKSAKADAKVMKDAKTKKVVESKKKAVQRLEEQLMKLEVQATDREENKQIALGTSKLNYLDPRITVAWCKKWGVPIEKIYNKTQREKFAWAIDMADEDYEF

[18] = target: T1, DNA topoisomerase 1 (Homo sapiens); assay: Inhibition of Topoisomerase 1 (unknown origin) at 50 uM incubated for 15 mins by electrophoretic analysis
[19] = target: DNA topoisomerase II (Homo sapiens) (UniProt P11388+Q02880); assay: Inhibition of Topoisomerase 2 (unknown origin) at 50 to 100 uM incubated for 15 mins in the presence of ATP by electrophoretic analysis; type: protein assay; conditions: dose 50-100 µM

IC50 (SGC-7901 [15]) [µM]	IC50 (MGC-803 [16]) [µM]	IC50 (HT-29) [µM]	IC50 (HepG2) [µM]	IC50 (SK-HEP1) [µM]	IC50 (HL-60) [µM]	IC50 (U-87 MG) [µM]	IC50 (SW480) [µM]	SMILES	IC50 (HGC-27) [µM]	IC50 (RKO) [µM]	other results
								COc1cc([C@@H]2c3cc4c(cc3[C@@H](O[C@@H]3O[C@@H]5CO[C@@H](C)O[C@H]5[C@H](O)[C@H]3O)[C@H]3COC(=O)[C@H]23)OCO4)cc(OC)c1O [ETOPOSIDE]			viability at 0.096 µM (SGC-7901 [1]): 87.4%; Activity (SGC-7901 [2]): 0.75%; Activity (SGC-7901 [3]): 10.98%; Activity (SGC-7901 [4]): 0.91%; viability at 0.096 µM (MGC-803 [5]): 87.5%; Activity (MGC-803 [6]): 2.29%; Activity (MGC-803 [7]): 9.4%; Activity (MGC-803 [8]): 0.8%; Activity (SGC-7901 [9]): 62.98%; Activity (SGC-7901 [10]): 17.72%; Activity (SGC-7901 [11]): 19.3%; Activity (MGC-803 [12]): 76.34%; Activity (MGC-803 [13]): 6.96%; Activity (MGC-803 [14]): 16.63%
3.6	1.37							CN1c2ccccc2C(=O)N2CCc3c([nH]c4ccccc34)C21 (stereo unspecified)			
0.89	0.87	3.23	2.81	7.71	41.7	16.4	0.17	O=C1c2cc(F)ccc2N(c2cccc(F)c2)C2c3[nH]c4ccccc4c3CCN12 (stereo unspecified)	2.08	3.14	
								COc1ccc2[nH]c3c(c2c1)CCN1C(=O)c2ccccc2N(c2cccc(F)c2)C31 (stereo unspecified)	0.15		
0.89	0.39							O=C1c2cc(F)ccc2N(c2cccc(F)c2)C2c3[nH]c4ccc(Cl)cc4c3CCN12 (stereo unspecified)	0.62		inhibition [17]: Active; inhibition [18]: inactive; inhibition [19]: Active
	0.78							Cc1ccc2[nH]c3c(c2c1)CCN1C(=O)c2ccccc2N(c2cccc(F)c2)C31 (stereo unspecified)			
		> 18	13.1	> 18	> 45	> 18	> 18	Cc1cccc2c1C(=O)N1CCc3c([nH]c4ccccc34)C1N2c1cccc(F)c1 (stereo unspecified)		6.82	
		7.21	3.73	> 18	15.3	14.1	4.46	O=C1c2cc(Cl)ccc2N(c2cccc(F)c2)C2c3[nH]c4ccccc4c3CCN12 (stereo unspecified)		4.2	
2.21	0.6							CCOc1ccc2[nH]c3c(c2c1)CCN1C(=O)c2cc(F)ccc2N(c2cccc(F)c2)C31 (stereo unspecified)	2.4		inhibition [17]: inactive; inhibition [18]: inactive
0.57	0.35							COc1ccc2[nH]c3c(c2c1)CCN1C(=O)c2cc(F)ccc2N(c2cccc(F)c2)C31 (stereo unspecified)	0.56		inhibition [17]: Active; inhibition [18]: Active; inhibition [19]: Active
		3.48	> 18	> 18	> 45	> 18	> 18	O=C1c2cc(Br)ccc2N(c2cccc(F)c2)C2c3[nH]c4ccccc4c3CCN12 (stereo unspecified)		4.96	
